The values that follow come from ChEMBL document CHEMBL3259674, “Structure-Activity Relationship of Semicarbazone EGA Furnishes Photoaffinity Inhibitors of Anthrax Toxin Cellular Entry” (ACS Med Chem Lett, 2014).

The source made the active and inactive calls. The rule behind the calls is not given here.

The target in the first test is T1, Antrax lethal toxin (Bacillus anthracis) (UniProt P15917+P13423). The experiment in a line: Irreversible inhibition of Bacillus anthracis lethal toxin-induced mouse RAW264.7 cell death at 12.5 uM preincubated for 1 hr followed by UV irradiation measured after 5 mins. Type of test: protein-complex assay.
Conditions: not given
As for `Cc1cccc(C)c1NC(=O)N/N=C/c1ccc(N=[N+]=[N-])cc1F`, the inhibition result is “inactive”.

A further test concerns the target T1, Antrax lethal toxin (Bacillus anthracis). The following applies: RAW264.7, at 25 µM.
As for `Cc1cccc(C)c1NC(=O)N/N=C/c1ccc(NS(C)(=O)=O)cc1`, the inhibition result was “inactive”. Take `Cc1ccccc1/C=N/NC(=O)Nc1c(C)cccc1C`: the inhibition entry is “inactive”. For `Cc1cccc(C)c1NC(=O)N/N=C/c1cccc(C(F)(F)F)c1Cl`, the inhibition result is “inactive”.

Take `Cc1cccc(C)c1NC(=S)N/N=C/c1ccc(Br)cc1F`: the inhibition entry is “inactive”. On the same count and under the same terms, to `Cc1cccc(C)c1NC(=S)N/N=C/c1c(F)cc(Br)cc1F` belongs “inactive”. With `Cc1ccc(NC(=O)N/N=C/c2ccc(Br)cc2)c(C)c1`, the inhibition entry was “inactive”. On the same count and under the same terms, the entry for `Cc1cccc(C)c1NC(=O)NN` is “inactive”; for `CC(C)(C)NC(=O)N/N=C/c1ccc(Br)cc1` it is “inactive”. On to `Cc1cccc(C)c1NC(=O)N/N=C/c1ccccc1`, for which the inhibition entry was “inactive”.

Turning to `COc1cc(OC)c(/C=N/NC(=O)Nc2c(C)cccc2C)c(OC)c1`, the inhibition result was “inactive”. Same read-out and setting: the entry for `O=C(N/N=C/c1ccc(Cl)cc1)Nc1ccccc1` is “inactive”; for `Cc1cccc(C)c1NC(=O)N/N=C/c1ccncc1` it is “inactive”. As for `COc1cccc(/C=N/NC(=O)Nc2c(C)cccc2C)c1OC`, the inhibition entry was “inactive”. In the case of `C#CCN(/N=C/c1ccc(N=[N+]=[N-])cc1)C(=O)Nc1c(C)cccc1C`, the inhibition result was “inactive”.

Consider `Cc1cccc(C)c1NC(=O)N/N=C/c1ccco1`, for which the inhibition entry is “inactive”.

The target is the same in a further test. The experiment in a line: Irreversible inhibition of Bacillus anthracis lethal toxin-induced mouse RAW264.7 cell death at 25 uM preincubated for 1 hr followed by UV irradiation measured after 5 mins. Type of test: protein-complex assay.
Conditions: not given
Consider `Cc1cccc(C)c1NC(=O)N/N=C/c1ccc(N=[N+]=[N-])cc1`, for which the inhibition entry was “Active”. On the same count and under the same terms, the entry for `Cc1cccc(C)c1NC(=O)N/N=C/c1c(F)c(F)c(N=[N+]=[N-])c(F)c1F` is “Active”.

A further test shares this target. Description: Reversible inhibition of Bacillus anthracis lethal toxin-induced mouse RAW264.7 cell death at 12.5 uM preincubated for 1 hr followed by compound washout measured 4 hrs post lethal toxin challenge. In kind it is protein-complex assay.
Conditions: not given
Regarding `Cc1cccc(C)c1NC(=O)N/N=C/c1ccc(N=[N+]=[N-])cc1F`, the inhibition entry was “Active”.

For the next test the target is unchanged. The experiment in a line: Reversible inhibition of Bacillus anthracis lethal toxin-induced mouse RAW264.7 cell death at 25 uM preincubated for 1 hr followed by compound washout measured 4 hrs post lethal toxin challenge. In kind it is protein-complex assay.
Conditions: not given
Take `Cc1cccc(C)c1NC(=O)N/N=C/c1ccc(N=[N+]=[N-])cc1`: the inhibition result was “Active”. Same read-out and setting: the entry for `Cc1cccc(C)c1NC(=O)N/N=C/c1c(F)c(F)c(N=[N+]=[N-])c(F)c1F` is “Active”.
